Assays:
[1] = system: CAL-51 (Breast Carcinoma); experiment: combination Emax (second highest fraction inhibited in the dose matrix, 72 h); higher = more inhibition; extreme values may be limits of the assay
Outline: (§1)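 Bliss excess equals the observed combination effect minus the expected value EA + EB − EA·EB, where EA and EB are the effects of each agent alone. Combination Emax is the second-highest inhibition within the matrix. Inhibition was scaled from CellTiter-Glo 2.0 luminescence, with 0 set by vehicle wells and 1 by blank wells, after 72 hours of two-drug dosing of cells plated in 1536-well plates.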

[2] = system: KYSE-410 (Esophageal Squamous Cell Carcinoma); experiment: as above
Outline: as §1

[3] = system: SW626 (Colorectal Carcinoma); experiment: as above
Outline: as §1

[4] = system: HCC-15 (Squamous Cell Lung Carcinoma); experiment: as above
Outline: as §1

[5] = system: NCI-H747 (Colorectal Carcinoma); experiment: as above
Outline: as §1

[6] = system: TE-4 (Esophageal Squamous Cell Carcinoma); experiment: as above
Outline: as §1

[7] = system: MHH-PREB-1 (B-Cell Non-Hodgkin's Lymphoma); experiment: as above
Outline: as §1

[8] = system: KARPAS-231 (B-Cell Non-Hodgkin's Lymphoma); experiment: Bliss excess, mean over the matrix (fraction); higher = more synergy
Outline: as §1

[9] = system: CTB-1 (B-Cell Non-Hodgkin's Lymphoma); experiment: as above
Outline: as §1

COLO-829 (Melanoma) = experiment: as above
Outline: as §1

[10] = system: CAL-51 (Breast Carcinoma); experiment: as above
Outline: as §1

[11] = system: KYSE-410 (Esophageal Squamous Cell Carcinoma); experiment: as above
Outline: as §1

[12] = system: SW626 (Colorectal Carcinoma); experiment: as above
Outline: as §1

[13] = system: HCC-15 (Squamous Cell Lung Carcinoma); experiment: as above
Outline: as §1

[14] = system: UMC-11 (Other Solid Carcinomas); experiment: as above
Outline: as §1

[15] = system: NCI-H747 (Colorectal Carcinoma); experiment: as above
Outline: as §1

[16] = system: LB771-HNC (Head and Neck Carcinoma); experiment: as above
Outline: as §1

[17] = system: TE-4 (Esophageal Squamous Cell Carcinoma); experiment: as above
Outline: as §1

[18] = system: OVCAR-8 (Ovarian Carcinoma); experiment: as above
Outline: as §1

[19] = system: MHH-PREB-1 (B-Cell Non-Hodgkin's Lymphoma); experiment: as above
Outline: as §1

For CN(CCO)CC[C@H](CSc1ccccc1)Nc1ccc(S(=O)(=O)NC(=O)c2ccc(N3CCC([C@@H](O)c4ccccc4-c4ccc(Cl)cc4)CC3)cc2)cc1S(=O)(=O)C(F)(F)F [AZD4320] + C[C@@H](Nc1cc(F)cc(F)c1)c1cc(C(=O)N(C)C)cc2c(=O)cc(N3CCOCC3)oc12 [AZD8186] (first compound max 1 µM, 7x7, partner max 3 µM), the “combination Emax” value [1] was 0.443, the “combination Emax” value [2] was 0.299 and the “combination Emax” value [3] was 0.651. The “combination Emax” value [4] was 0.96, the “combination Emax” value [5] was 0.511 and the “combination Emax” value [6] was 0.333. The “combination Emax” value [7] was 0.277, the Bliss excess [8] was 0.0269 and the Bliss excess [9] was 0.0266. It also gave a Bliss excess (COLO-829 (Melanoma)) of 0.0015, a Bliss excess [10] of 0.0283 and a Bliss excess [11] of 0.0209. The Bliss excess [12] was -0.0203, the Bliss excess [13] was 0.0764 and the Bliss excess [14] was -0.0356. It also gave a Bliss excess [15] of -0.0282, a Bliss excess [16] of 0.0095 and a Bliss excess [17] of 0.0296. The Bliss excess [18] was 0.0245 and the Bliss excess [19] was 0.0355.

Source: the supplement of paper PMC11061612
